23 compounds from US20250312352A1, “GLP-1R MODULATING COMPOUNDS” (Gilead Sciences, Inc., priority 2021, published 2025) can be followed below.

Each structure is given as a SMILES string. pEC50: −log10 of the molar value.

In the assay the target is T1, GLP-1R (Homo sapiens, UniProt P43220).
T1 construct: host or cells: CHO cells
T1 sequence (P43220 24-463): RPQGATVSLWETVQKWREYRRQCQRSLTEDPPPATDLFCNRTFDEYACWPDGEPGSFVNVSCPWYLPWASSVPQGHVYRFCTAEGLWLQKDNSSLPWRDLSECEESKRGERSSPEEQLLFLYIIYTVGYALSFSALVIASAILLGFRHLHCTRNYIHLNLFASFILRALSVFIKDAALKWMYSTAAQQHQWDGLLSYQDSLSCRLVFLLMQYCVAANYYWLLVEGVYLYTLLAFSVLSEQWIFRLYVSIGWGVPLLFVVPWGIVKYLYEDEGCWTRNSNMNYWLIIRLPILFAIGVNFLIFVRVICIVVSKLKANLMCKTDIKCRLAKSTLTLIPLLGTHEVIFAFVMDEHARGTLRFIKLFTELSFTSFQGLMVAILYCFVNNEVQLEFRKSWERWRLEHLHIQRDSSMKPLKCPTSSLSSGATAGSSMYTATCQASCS
Put plainly: GLP-1R activation cAMP assay (Assay 1 or Assay 2). The assay is classed as cell-based. The following applies: cAMP increase in CHO cells stably expressing GLP-1R; compounds run on one of the two cAMP assays. The procedure, abridged:
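EC50 values come from a sigmoidal fit of HTRF-detected cAMP rise versus log agonist concentration. GLP-1R-expressing CHO cells, equilibrated 1 h at 37 °C in HBSS with HEPES and BSA, received a 10-point compound dose series for 30 min before detection.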
A general note: cAMP levels reflect the balance of adenylyl cyclase and phosphodiesterase activity.
Take `CC(C)(O)C#Cc1cnc(COc2cccc(-c3cc(F)c(Cc4nc5ccc(C(=O)O)cc5n4C[C@@H]4CCO4)cc3F)n2)s1` [Example 334, (S)-2-(2,5-difluoro-4-(6-((5-(3-hydroxy-3-methylbut-1-yn-1-yl)thiazol-2-yl)methoxy)pyridin-2-yl)benzyl)-1-(oxetan-2-ylmethyl)-1H-benzo[d]imidazole-6-carboxylic acid]: the pEC50 was 9.45.
In the case of `Cn1ncc2cc(COc3cccc(-c4cc(F)c(Cc5nc6ccc(C(=O)O)cc6n5C[C@@H]5CCO5)cc4F)n3)sc21` [Example 230, 2-[[2,5-difluoro-4-[6-[(1-methylthieno[2,3-c]pyrazol-5-yl)methoxy]-2-pyridyl]phenyl]methyl]-3-[[(2S)-oxetan-2-yl]methyl]benzimidazole-5-carboxylic acid] it was 9.48.
Then `NC(=O)c1ccc(COc2cccc(-c3ccc(Cc4nc5ccc(C(=O)O)cc5n4C[C@@H]4CCO4)cc3F)n2)cn1` [Example 173, (S)-2-(4-(6-((6-carbamoylpyridin-3-yl)methoxy)pyridin-2-yl)-3-fluorobenzyl)-1-(oxetan-2-ylmethyl)-1H-benzo[d]imidazole-6-carboxylic acid], with 7.63; and `Cn1nc(COc2cccc(-c3cc(F)c(Cc4nc5ccc(C(=O)O)cc5n4C[C@@H]4CCO4)cc3F)n2)cc1C(F)(F)F` [Example 71, (S)-2-(2,5-difluoro-4-(6-((1-methyl-5-(trifluoromethyl)-1H-pyrazol-3-yl)methoxy)pyridin-2-yl)benzyl)-1-(oxetan-2-ylmethyl)-1H-benzo[d]imidazole-6-carboxylic acid], with 9.54.
Then `N#CC1(NC(=O)c2cc(Cl)c(COc3cccc(-c4cc(F)c(Cc5nc6ccc(C(=O)O)cc6n5C[C@@H]5CCO5)cc4F)n3)cn2)COC1` [Example 187, (S)-2-(4-(6-((4-chloro-6-((3-cyanooxetan-3-yl)carbamoyl)pyridin-3-yl)methoxy)pyridin-2-yl)-2,5-difluorobenzyl)-1-(oxetan-2-ylmethyl)-1H-benzo[d]imidazole-6-carboxylic acid], with 9.92; and `O=C(O)c1cc(F)c2nc(Cc3cc(F)c(-c4cccc(OCc5ncc(C(F)F)s5)n4)cc3F)n(C[C@@H]3CCO3)c2c1` [Example 324, (S)-2-(4-(6-((5-(difluoromethyl)thiazol-2-yl)methoxy)pyridin-2-yl)-2,5-difluorobenzyl)-4-fluoro-1-(oxetan-2-ylmethyl)-1H-benzo[d]imidazole-6-carboxylic acid], with 9.91; and `O=C(O)c1ccc2nc(Cc3c(F)cc(-c4ccc(F)c(OCc5ncc(C(F)(F)F)s5)n4)c(F)c3F)n(C[C@@H]3CCO3)c2c1` [Example 446, (S)-1-(oxetan-2-ylmethyl)-2-(2,3,6-trifluoro-4-(5-fluoro-6-((5-(trifluoromethyl)thiazol-2-yl)methoxy)pyridin-2-yl)benzyl)-1H-benzo[d]imidazole-6-carboxylic acid], with 9.77.
Take `Cn1nccc1COc1cccc(-c2cc(F)c(Cc3nc4ccc(C(=O)O)cc4n3C[C@@H]3CCO3)cc2F)n1` [Example 36, (S)-2-(2,5-difluoro-4-(6-((1-methyl-1H-pyrazol-5-yl)methoxy)pyridin-2-yl)benzyl)-1-(oxetan-2-ylmethyl)-1H-benzo[d]imidazole-6-carboxylic acid]: the pEC50 is 8.28.
In the case of `CCOc1nnc(COc2cccc(-c3cc(F)c(Cc4nc5ccc(C(=O)O)cc5n4[C@@H]4COCC4(C)C)cc3C)c2)s1` [Example 259, (S)-1-(4,4-dimethyltetrahydrofuran-3-yl)-2-((3′-((5-ethoxy-1,3,4-thiadiazol-2-yl)methoxy)-5-fluoro-2-methyl-[1,1′-biphenyl]-4-yl)methyl)-1H-benzo[d]imidazole-6-carboxylic acid] it was 9.24.
In the case of `Cn1ncc(C#Cc2ccc(COc3cccc(-c4cc(F)c(Cc5nc6ccc(C(=O)O)cc6n5C[C@@H]5CCO5)cc4F)n3)c(F)c2)c1Cl` [Example 361, (S)-2-(4-(6-((4-((5-chloro-1-methyl-1H-pyrazol-4-yl)ethynyl)-2-fluorobenzyl)oxy)pyridin-2-yl)-2,5-difluorobenzyl)-1-(oxetan-2-ylmethyl)-1H-benzo[d]imidazole-6-carboxylic acid] it was 9.21.
Then `NC(=O)CNC(=O)c1ccc(COc2cccc(-c3cc(F)c(Cc4nc5ccc(C(=O)O)cc5n4C[C@@H]4CCO4)cc3F)n2)cn1` [Example 176, (S)-2-(4-(6-((6-((2-amino-2-oxoethyl)carbamoyl)pyridin-3-yl)methoxy)pyridin-2-yl)-2,5-difluorobenzyl)-1-(oxetan-2-ylmethyl)-1H-benzo[d]imidazole-6-carboxylic acid], with 8.66; and `Cc1ncc(C#Cc2ccc(COc3cccc(-c4cc(F)c(Cc5nc6ccc(C(=O)O)cc6n5C[C@@H]5CCO5)cc4F)n3)c(F)c2)o1` [Example 136, (S)-2-(2,5-difluoro-4-(6-((2-fluoro-4-((2-methyloxazol-5-yl)ethynyl)benzyl)oxy)pyridin-2-yl)benzyl)-1-(oxetan-2-ylmethyl)-1H-benzo[d]imidazole-6-carboxylic acid], with 9.60.
Turning to `Cn1cc(C#Cc2ccc(COc3cccc(-c4cc(F)c(Cc5nc6ccc(C(=O)O)cc6n5C[C@@H]5CCO5)cc4F)n3)cc2)cn1` [Example 306, (S)-2-(2,5-difluoro-4-(6-((4-((1-methyl-1H-pyrazol-4-yl)ethynyl)benzyl)oxy)pyridin-2-yl)benzyl)-1-(oxetan-2-ylmethyl)-1H-benzo[d]imidazole-6-carboxylic acid], the pEC50 was 9.21.
As to `O=C(O)c1ccc2nc(Cc3cc(F)c(-c4cccc(OCc5ncc(C#Cc6cnsc6)cc5F)n4)cc3F)n(C[C@@H]3CCO3)c2c1` [Example 285, (S)-2-(2,5-difluoro-4-(6-((3-fluoro-5-(isothiazol-4-ylethynyl)pyridin-2-yl)methoxy)pyridin-2-yl)benzyl)-1-(oxetan-2-ylmethyl)-1H-benzo[d]imidazole-6-carboxylic acid], the pEC50 was 9.90.
In the case of `Cc1cc(Cc2nc3ccc(C(=O)O)cc3n2[C@@H]2COCC2(C)C)c(Cl)cc1-c1ccc(F)c(OCc2ncc(C(C)(F)F)s2)n1` [Example 427, (S)-2-(2-chloro-4-(6-((5-(1,1-difluoroethyl)thiazol-2-yl)methoxy)-5-fluoropyridin-2-yl)-5-methylbenzyl)-1-(4,4-dimethyltetrahydrofuran-3-yl)-1H-benzo[d]imidazole-6-carboxylic acid] it was 8.85; in that of `Cn1ccc(C#Cc2ccc(COc3cccc(-c4cc(F)c(Cc5nc6ccc(C(=O)O)cc6n5C[C@@H]5CCO5)cc4F)n3)c(F)c2)cc1=O` [Example 357, (S)-2-(2,5-difluoro-4-(6-((2-fluoro-4-((1-methyl-2-oxo-1,2-dihydropyridin-4-yl)ethynyl)benzyl)oxy)pyridin-2-yl)benzyl)-1-(oxetan-2-ylmethyl)-1H-benzo[d]imidazole-6-carboxylic acid], 9.29.
The compound `O=C(O)c1ccc2nc(Cc3cc(F)c(-c4cccc(OCc5nc(C(F)(F)F)cs5)n4)cc3F)n(C[C@@H]3CCO3)c2c1` [Example 53, (S)-2-(2,5-difluoro-4-(6-((4-(trifluoromethyl)thiazol-2-yl)methoxy)pyridin-2-yl)benzyl)-1-(oxetan-2-ylmethyl)-1H-benzo[d]imidazole-6-carboxylic acid] showed a pEC50 of 9.42.
In the case of `COCCn1c(Cc2cc(F)c(-c3cccc(OCc4nnc(OC)s4)n3)cc2Cl)nc2c(F)cc(C(=O)O)cc21` [Example 315, 2-(2-chloro-5-fluoro-4-(6-((5-methoxy-1,3,4-thiadiazol-2-yl)methoxy)pyridin-2-yl)benzyl)-4-fluoro-1-(2-methoxyethyl)-1H-benzo[d]imidazole-6-carboxylic acid], the pEC50 is 9.12.
In the case of `CC1(C)COC[C@H]1n1c(Cc2cc(F)c(-c3cccc(OCc4nnc(C(F)(F)F)s4)n3)cc2F)nc2ccc(C(=O)O)cc21` [Example 433, (S)-2-(2,5-difluoro-4-(6-((5-(trifluoromethyl)-1,3,4-thiadiazol-2-yl)methoxy)pyridin-2-yl)benzyl)-1-(4,4-dimethyltetrahydrofuran-3-yl)-1H-benzo[d]imidazole-6-carboxylic acid] it was 9.38.
Consider `CCOc1nnc(COc2cccc(-c3cc(F)c(Cc4nc5ccc(C(=O)O)cc5n4[C@@H]4COCC4(C)C)c(F)c3F)n2)s1` [Example 263, (S)-1-(4,4-dimethyltetrahydrofuran-3-yl)-2-(4-(6-((5-ethoxy-1,3,4-thiadiazol-2-yl)methoxy)pyridin-2-yl)-2,3,6-trifluorobenzyl)-1H-benzo[d]imidazole-6-carboxylic acid], for which the pEC50 was 9.88.
In the case of `O=C(O)c1cc(F)c2nc(Cc3cc(F)c(-c4cccc(OCc5ncc(C#Cc6cncs6)cc5F)n4)cc3F)n(C[C@@H]3CCO3)c2c1` [Example 390, (S)-2-(2,5-difluoro-4-(6-((3-fluoro-5-(thiazol-5-ylethynyl)pyridin-2-yl)methoxy)pyridin-2-yl)benzyl)-4-fluoro-1-(oxetan-2-ylmethyl)-1H-benzo[d]imidazole-6-carboxylic acid] it was 9.63.
Then `C[C@@H](C#N)NC(=O)c1cc(Cl)c(COc2cccc(-c3cc(F)c(Cc4nc5ccc(C(=O)O)cc5n4C[C@@H]4CCO4)cc3F)n2)cn1` [Example 201, 2-(4-(6-((4-chloro-6-(((S)-1-cyanoethyl)carbamoyl)pyridin-3-yl)methoxy)pyridin-2-yl)-2,5-difluorobenzyl)-1-(((S)-oxetan-2-yl)methyl)-1H-benzo[d]imidazole-6-carboxylic acid], with 9.41; and `Cn1nccc1-c1cnc(COc2cccc(-c3cc(F)c(Cc4nc5ccc(C(=O)O)cc5n4C[C@@H]4CCO4)cc3F)n2)s1` [Example 94, (S)-2-(2,5-difluoro-4-(6-((5-(1-methyl-1H-pyrazol-5-yl)thiazol-2-yl)methoxy)pyridin-2-yl)benzyl)-1-(oxetan-2-ylmethyl)-1H-benzo[d]imidazole-6-carboxylic acid], with 8.54.

What is called pEC50 is the EC50 on a negative log10 scale, so that one unit is a factor of ten.
